{"source": "patent US20240058240A1", "about": "“COMPOUNDS AS SELF-TANNING SUBSTANCES AND TANNING COMPOSITIONS THEREOF” (CHEMCOM S.A., priority 2020, published 2024)", "type_in_all_cases": "cell-based", "key": {"OR7C1": {"target": "T1, OR7C1 (Homo sapiens, UniProt O76099)", "T1 construct": "transfected with a plasmid containing the CRE-luciferase and a plasmid containing the olfactory receptor; expressed in transfected cells; host or cells: HEK293T-RTP1A1/RTP2 (HEK293T stably expressing the chaperones RTP1A1 and RTP2)", "T1 sequence (O76099 1-320)": "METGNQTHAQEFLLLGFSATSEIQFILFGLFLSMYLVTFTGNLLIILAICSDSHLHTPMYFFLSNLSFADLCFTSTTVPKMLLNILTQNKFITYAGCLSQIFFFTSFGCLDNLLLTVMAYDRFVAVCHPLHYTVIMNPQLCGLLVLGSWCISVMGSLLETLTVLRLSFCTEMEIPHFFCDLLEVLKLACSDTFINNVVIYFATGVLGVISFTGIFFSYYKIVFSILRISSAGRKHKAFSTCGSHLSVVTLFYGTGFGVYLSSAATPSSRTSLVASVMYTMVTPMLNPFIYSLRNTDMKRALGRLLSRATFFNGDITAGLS", "test": "Luciferase-based CRE gene reporter assay, dose-response on OR7C1", "conditions": "negative logarithm of the EC50 in Moles; semi-logarithmic dilutions from 1 mM to 316 nM on OR7C1; read-out: -LogEC50 (average n > 3) (converted)", "experimental": "HEK293T-RTP1A1/RTP2 cells were maintained in minimal essential medium (EMEM, Lonza) containing 10% fetal bovine serum (M10). These cells were generated by transfecting HEK293T (Thermofisher Scientific, cat ref: R70007) with an expression vector containing the sequences of the chaperone proteins RTP1A1 and RTP2 and a resistance gene to puromycin, using Lipofectamine 2000. The recombinant cell population, used in these experiments, was selected by adding 10 μg/ml of puromycin into the culture medium and subsequently subcloned (WO 2014/191047 A1).\nPotential OR7C1 agonists were diluted at a concentration of 1 mole/liter (M) into an organic solvent such as Dimethyl Sulfoxide (DMSO) or Ethanol to generate stock solutions. […]\nFor concentration-response analysis, serial dilutions of the tested molecules were prepared from stock solutions in EMEM plated into 96-well plates.\nFor the dose-response analysis, a Luciferase-based gene reporter assay (Promega, Leiden, the Netherlands) was used. Briefly, cells were platted on poly-D-lysine-coated 96-well plates and transfected with a plasmid containing the CRE-luciferase and a plasmid containing the olfactory receptor. Sixteen hours after transfection, the culture medium was replaced by serum-free EMEM containing the tested compounds at a determined concentration. After four hours of incubation at 37° C., cells were lysed and processed for luminescence measurement. Luminescence emission was recorded. Results were expressed as luciferase activity ([…] (RLU)) or as percentage of the response induced by 10 μM of the adenylate cyclase activator Forskolin. An empty plasmid is used as negative control.\nDose-response analyses using the luciferase-based reporter assay were performed using semi-logarithmic serial dilutions of the compounds, from 1 mM to 316 nM, on OR7C1. 46 compounds were tested in concentration-response analyses. In each experiment, an empty vector (pEFIBRHO) was used as negative control. Values are given as the negative logarithm of the EC50 in Moles."}, "[1]": {"system": "Normal Human Epidermal Melanocytes moderately pigmented (NHEMs-MP)", "test": "MTS cytotoxicity test on NHEMs-MP", "conditions": "4 days of treatment, 5 concentrations, threshold 80% viability", "experimental": "(§1) This primary culture was cultivated in medium M254 supplemented (LIFE TECHNOLOGIES; ref:M-254-500) with HMGS (human melanocyte growth supplement; LIFE TECHNOLOGIES; ref: S-002-5) and gentamycin (LIFE TECHNOLOGIES; ref:15710-049) and maintained in a humidified incubator at 37° C. with a 5% CO2 atmosphere. For experiments (see below), cells were seeded at a density of 9×10^4 cells/well (100 μL/well) and cultured at 37° C. under a 5% CO2.\nNHEMs moderately pigmented (NHEMs-MP) were seeded in 24-wells plates at a density of 9×10^4 cells/well, 72 h before the treatment with the different concentrations of 2 different compounds according to embodiments of the invention. After 2 days of treatment with these compounds, compounds were re-applied for 2 additional days according to the experimental scheme as shown in FIG. 1. Sodium dodecyl sulfate (SDS) at 0.05% was used as cytotoxicity positive control in order to validate the experiment. […]\nAn MTS assay (3-(4,5-dimethythiazol-2-yl)-5-(3-carboxymethoxyphenyl)-2-(4-sulfophenyl)-2H-tetrazolium) was performed to measure the maximal concentrations the compounds which can be used in the culture medium of NHEMs-MP without affecting cell viability. […] Cell viability was analyzed, and toxicity/viability was expressed in percentage relative to the ethanol treated condition which was fixed at 100%. […]"}, "[2]": {"system": "Normal Human Epidermal Melanocytes moderately pigmented (NHEMs-MP)", "test": "Melanin content (pigmentation) of NHEMs-MP in culture", "experimental": "as §1\nThe NHEMs-MP were treated for 4 days, with a medium refresh after 2 days of treatment—Amberketal, Ambermax and with the reference molecule (L-DOPA)—when the culture media are collected and stored at −80° C. as shown in FIG. 2. At the end of the treatments, the culture media were collected a second time, pooled with the media collected at day 2 and centrifuged for 30 minutes (14000 rpm). The pellet obtained after centrifugation and NHEMs-MP treated cells were lysed in 150 μl of a NaOH 1M solution. 5 μl of each cell lysate were used for protein quantification using BCA protein assay. The remaining 145 μl of the lysates were heated at 80° C. during 1 h. The optical density was measured at 490 nm and the melanin content was determined by comparison with a standard curve of synthetic melanin and reported to the quantity of protein present in each cell well tested.\nThe effects of these 2 compounds, namely Ambermax and Amberketal, on the melanin production were evaluated as described above. Based on MTS results, moderately pigmented (MP) NHEMs were treated with these 2 compounds at one concentration (100 μM for Amberketal and 3.16 μM for Ambermax) for 4 days. In parallel, cell cultures were also treated with Ethanol 0.1%, a concentration corresponding to the test compounds solvent, and with a known modulator of pigmentation (L-DOPA 50 μM). […] At the end of the treatments (D4), cells were lysed, the melanin content was quantified by spectrophotometry and normalized to the amount of proteins. Extracellular melanin was also evaluated by the same methodology after centrifugation of the culture media."}}, "data": [{"smiles": "CC(=O)C1(C)CCC2=C(C1C)C(C)(C)CCC2", "note": "(stereo not drawn) [Compound 4, Georgywood]", "values": [{"measurement": "EC50", "setting": "OR7C1", "result": 25.1, "unit": "µM"}, {"measurement": "cell toxicity (MTS, viability relative to ethanol treated condition)", "setting": "[1]", "result": "no significant cell toxicity"}]}, {"smiles": "CC12CCC3C(CCC4C(C)(C)CCCC43C)(CO1)O2", "note": "(stereo not drawn) [Compound 17, Amberketal]", "values": [{"measurement": "EC50", "setting": "OR7C1", "result": 2.51, "unit": "µM"}, {"measurement": "increase of melanin present in the media (extracellular)", "setting": "[2]; 100 μM, 4 days, NHEMs-MP, in comparison with DOPA (50 μM), p<0.01, n=10", "result": "+99%"}, {"measurement": "increase of intracellular melanin content", "setting": "[2]; 100 μM, 4 days, NHEMs-MP, in comparison with DOPA (50 μM), p<0.01, n=12", "result": "+40%"}]}, {"smiles": "N[C@@H](Cc1ccc(O)c(O)c1)C(=O)O", "note": "[L-DOPA, 3,4-dihydroxyphenylalanine, reference compound]", "values": [{"measurement": "melanin content in NHEMs", "setting": "[2]; 50 μM, 4 days of treatment", "result": "enhanced slightly the melanin content"}]}]}
